Patent US10322127B2, “Methods and kits to predict therapeutic outcome of BTK inhibitors” (THE TRANSLATIONAL GENOMICS RESEARCH INSTITUTE, priority 2010, dated 2019)

Experiments:
[1] = tested on: pancreatic cancer cell lines with a DPC4 deletion (BxPC-3 and CFPAC-1) vs DPC4 wildtype (MIA PaCa-2 and PANC-1); assay: Cell viability by Cell Titer-Glo after 96 hours of drug treatment, pancreatic cancer cell lines; type: cell-based, human; conditions: BxPC-3 and CFPAC-1 vs MIA PaCa-2 and PANC-1, FIG. 5A, *p<0.05, **p<0.0001
Description: Cell viability was measured by Cell Titer-Glo after 96 hours of drug treatment.

[2] = tested on: MRL/lpr lupus model; conditions: cited from earlier work
[3] = tested on: BCR (B cell receptor) signaling in human B cells; conditions: cited from earlier work
[4] = tested on: mast cell and basophil degranulation; conditions: cited from earlier work
[5] = tested on: T cell receptor (TCR) signaling; conditions: cited from earlier work
[6] = tested on: collagen-induced arthritis; conditions: mice, orally dosed; cited from earlier work

## C=CC(=O)N1CCC[C@@H](n2nc(-c3ccc(Oc4ccccc4)cc3)c3c(N)ncnc32)C1 [PCI-32765]
[1]
  activity (inhibition of cell growth) in DPC4 deleted vs DPC4 wildtype pancreatic cancer cell lines: more activity
[2]
  auto-antibody production and development of kidney disease: inhibited
[3]
  effect on BCR signaling: blocks
[4]
  inhibition of mast cell and basophil degranulation: potent inhibitor
[5]
  effect on TCR signaling: does not affect
[6]
  course of collagen induced arthritis: reversed
  level of circulating autoantibodies: reduced
